The record followed here is ChEMBL document CHEMBL5252550, “DYRK1A kinase inhibition with emphasis on neurodegeneration: A comprehensive evolution story-cum-perspective” (Eur J Med Chem, 2018).

In general, Ki refers to the dissociation constant of the complex between target and ligand, obtained from inhibition or displacement. Usually IC50 stands for the midpoint of a concentration-inhibition curve. A word on the Km: it is the concentration of substrate that gives half-maximal velocity. As usually defined, the inhibition is the drop in the measured response relative to a control, in per cent. A higher inhibition goes with a strong effect.

Data set [1] has as its target T1, Dual specificity tyrosine-phosphorylation-regulated kinase 1A (Homo sapiens, UniProt Q13627). Put plainly: Binding affinity to DYRK1A (unknown origin) assessed as inhibition constant.
Data set [2] addresses T1, Dual specificity tyrosine-phosphorylation-regulated kinase 1A. Put plainly: Inhibition of DYRK1A (unknown origin) in presence of ATP.
Data set [3] has the same target. Kind of data set: Inhibition of DYRK1A (unknown origin) autophosphorylation.
Data set [4] has the same target. Kind of data set: Inhibition of DYRK1A (unknown origin).
Data set [5] deals with T2, Dual specificity tyrosine-phosphorylation-regulated kinase 2 (Homo sapiens, UniProt Q92630).
T2 sequence (Q92630 whole entry): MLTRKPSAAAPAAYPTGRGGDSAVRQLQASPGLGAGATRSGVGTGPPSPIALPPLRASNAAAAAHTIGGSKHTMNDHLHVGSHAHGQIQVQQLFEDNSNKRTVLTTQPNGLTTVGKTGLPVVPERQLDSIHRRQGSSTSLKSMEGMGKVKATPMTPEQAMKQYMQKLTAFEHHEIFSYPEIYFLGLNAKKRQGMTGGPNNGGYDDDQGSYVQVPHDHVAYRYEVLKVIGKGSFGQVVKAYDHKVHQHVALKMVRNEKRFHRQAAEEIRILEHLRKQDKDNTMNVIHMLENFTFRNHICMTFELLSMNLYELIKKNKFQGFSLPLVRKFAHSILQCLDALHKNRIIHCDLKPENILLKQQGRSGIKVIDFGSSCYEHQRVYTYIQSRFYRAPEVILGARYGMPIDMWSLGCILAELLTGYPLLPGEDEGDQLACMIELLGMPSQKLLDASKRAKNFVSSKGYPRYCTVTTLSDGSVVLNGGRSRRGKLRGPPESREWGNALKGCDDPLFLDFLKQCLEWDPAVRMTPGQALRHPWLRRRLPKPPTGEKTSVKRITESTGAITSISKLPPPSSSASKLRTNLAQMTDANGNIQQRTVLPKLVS
Put plainly: Inhibition of DYRK2 (unknown origin).

Another data set has as its target Acetylcholinesterase (Homo sapiens, UniProt P22303). Kind of data set: Inhibition of AChE (unknown origin).
Data set [6] addresses Dual specificity tyrosine-phosphorylation-regulated kinase 1B (Homo sapiens, UniProt Q9Y463). Kind of data set: Inhibition of DYRK1B (unknown origin).
The subject of data set [7] is CCN1/C(=C/C(C)=O)Sc2ccc(O)cc21. Kind of data set: Competitive inhibition of DYRK1A (unknown origin) assessed as michaelis-constant (Km). The settings on record: Homo sapiens.
Data set [8] has as its target T3, Dual specificity tyrosine-phosphorylation-regulated kinase 3 (Homo sapiens) (UniProt O43781).
T3 sequence (whole entry): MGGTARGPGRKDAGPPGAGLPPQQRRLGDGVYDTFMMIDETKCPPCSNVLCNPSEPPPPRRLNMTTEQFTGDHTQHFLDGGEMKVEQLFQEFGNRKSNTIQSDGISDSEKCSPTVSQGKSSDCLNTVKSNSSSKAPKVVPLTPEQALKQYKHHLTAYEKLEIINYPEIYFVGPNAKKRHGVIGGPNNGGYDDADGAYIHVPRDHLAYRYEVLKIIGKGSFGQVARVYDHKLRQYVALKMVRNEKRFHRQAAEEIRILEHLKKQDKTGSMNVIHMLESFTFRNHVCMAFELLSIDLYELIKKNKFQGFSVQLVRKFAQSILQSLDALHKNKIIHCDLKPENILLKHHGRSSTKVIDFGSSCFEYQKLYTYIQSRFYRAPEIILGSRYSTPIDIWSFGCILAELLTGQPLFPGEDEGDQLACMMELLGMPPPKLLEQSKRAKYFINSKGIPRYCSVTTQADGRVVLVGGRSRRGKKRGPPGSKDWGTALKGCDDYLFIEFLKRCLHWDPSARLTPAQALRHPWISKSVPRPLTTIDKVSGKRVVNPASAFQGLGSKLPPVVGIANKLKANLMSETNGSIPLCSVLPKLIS
Put plainly: Inhibition of DYRK3 (unknown origin) at 10 uM relative to control.

For data set [9], the target named is T4, Dual specificity tyrosine-phosphorylation-regulated kinase 2 (Homo sapiens) (UniProt Q92630).
T4 sequence (whole entry): T2 sequence (Q92630 whole entry)
Kind of data set: Inhibition of DYRK2 (unknown origin) at 10 uM relative to control.

Chain of Dual specificity tyrosine-phosphorylation-regulated kinase 1B (Q9Y463 whole entry): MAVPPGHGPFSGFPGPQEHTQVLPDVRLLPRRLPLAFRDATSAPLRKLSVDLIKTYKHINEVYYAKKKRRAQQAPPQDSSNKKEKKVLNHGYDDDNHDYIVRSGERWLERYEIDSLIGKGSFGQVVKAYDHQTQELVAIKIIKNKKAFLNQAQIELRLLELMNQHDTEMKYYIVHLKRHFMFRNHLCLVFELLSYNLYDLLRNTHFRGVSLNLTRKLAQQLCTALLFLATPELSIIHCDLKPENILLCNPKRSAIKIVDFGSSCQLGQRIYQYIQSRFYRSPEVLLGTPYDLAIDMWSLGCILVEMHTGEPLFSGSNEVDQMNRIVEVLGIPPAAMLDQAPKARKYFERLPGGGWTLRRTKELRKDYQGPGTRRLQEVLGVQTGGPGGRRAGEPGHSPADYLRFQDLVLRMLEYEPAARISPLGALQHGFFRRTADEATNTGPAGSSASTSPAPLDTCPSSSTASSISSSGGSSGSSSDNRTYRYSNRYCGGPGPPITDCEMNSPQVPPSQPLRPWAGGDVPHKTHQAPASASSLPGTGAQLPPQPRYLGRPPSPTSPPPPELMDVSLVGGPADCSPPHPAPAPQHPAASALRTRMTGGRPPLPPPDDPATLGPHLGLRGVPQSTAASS
Chain of Acetylcholinesterase (P22303 whole entry): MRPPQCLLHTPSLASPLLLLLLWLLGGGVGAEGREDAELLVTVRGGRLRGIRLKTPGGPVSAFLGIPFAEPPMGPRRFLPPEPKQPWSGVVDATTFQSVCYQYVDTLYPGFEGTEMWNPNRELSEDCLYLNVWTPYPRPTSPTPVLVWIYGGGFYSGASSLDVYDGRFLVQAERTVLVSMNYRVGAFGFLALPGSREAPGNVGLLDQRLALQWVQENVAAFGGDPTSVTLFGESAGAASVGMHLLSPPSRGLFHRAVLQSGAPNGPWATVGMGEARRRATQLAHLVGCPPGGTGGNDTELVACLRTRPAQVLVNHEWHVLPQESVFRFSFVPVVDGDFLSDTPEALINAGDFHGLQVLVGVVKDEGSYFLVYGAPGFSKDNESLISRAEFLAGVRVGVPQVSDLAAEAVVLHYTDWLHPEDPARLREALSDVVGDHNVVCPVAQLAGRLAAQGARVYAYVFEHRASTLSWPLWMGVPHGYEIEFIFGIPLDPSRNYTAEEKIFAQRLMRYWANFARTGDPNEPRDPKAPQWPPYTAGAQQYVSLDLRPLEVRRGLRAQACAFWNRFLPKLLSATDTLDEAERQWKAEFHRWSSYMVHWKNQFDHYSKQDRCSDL

With `O=C1c2ccc(O)c(O)c2C(=O)c2c(O)ccc(O)c21` [QUINALIZARIN], the inhibitory constant (Ki) in data set [1] was 5.85 µM.

Take `Cc1cc(=O)oc2cc3cc(O)ccc3cc12`: the half-maximal inhibitory concentration (IC50) in [2] turned out to be 0.6 µM.

Turning to `Cc1cc(=O)oc2cc3c([N+](=O)[O-])c(O)ccc3cc12`, the IC50 in data set [2] came out at 15 µM.

Turning to `COc1cc(/C=C2\C(=O)NN(c3ccc(Cl)c(Cl)c3)C2=O)ccc1O`, in data set [3], the midpoint of inhibition, the IC50, lay at 50 µM.

`CCOc1cc(/C=C2\SC(=S)NC2=O)ccc1OC` came in with an IC50 in data set [4] of 60.2 nM.

For `N=C1NC(=O)/C(=C/c2ccc3c(c2)CCO3)S1`, in data set [4], the IC50 is 7.9 nM.

Consider `COc1ccc2c(c1)[nH]c1c(C)nccc12` [HARMINE], for which the IC50 in data set [5] was found to be 1900 nM; at Acetylcholinesterase it was 11.3 µM.

On to `COC(=N)c1nc2ccc3ncnc(Nc4ccc(Cl)cc4Cl)c3c2s1`, for which, in data set [6], the concentration for half-maximal inhibition (IC50) was found to be 280 nM.

As to `CO[C@H]1[C@H](O)[C@@H](O)[C@H](n2c3c(Cl)cccc3c3c4c(c5c6cccc(Cl)c6[nH]c5c32)C(=O)NC4=O)O[C@@H]1CO` [REBECCAMYCIN], in data set [4], the midpoint of inhibition, the IC50, lay at 19 nM.

Turning to “Dual specificity tyrosine-phosphorylation-regulated kinase 1A (Homo sapiens) (from UniProt Q13627)”, the Km in [7] amounted to 37 µM.

Consider `CCC(=O)O[C@@H](C/C=C(\C)C(=O)OC)[C@H](C(=O)OC)[C@@H](OC(C)=O)[C@@H](C[C@H](C)[C@H](OC(=O)CC(C)C)[C@@H]1C[C@H](C)C[C@]2(C[C@H](C)C[C@](CC(C)=O)(OC(C)=O)O2)O1)OC(=O)CC(C)C`, for which the IC50 in data set [4] is greater than 10000 nM.

For `CCN1/C(=C/C(C)=O)Sc2ccc(O)cc21`, the inhibition in data set [8] and in data set [9] was greater than 90% each time.

`CN1CCc2cc3c(c4c2C1Cc1ccccc1-4)OCO3` (stereo not drawn) [ROEMERINE] came in with a half-maximal inhibitory concentration (IC50) in data set [4] of 15000 nM.

As for `COc1cccc(NC(=O)Nc2nnc(-c3ccncc3)s2)c1`, half-maximal inhibition in data set [3] (IC50) was put at 2.5 µM.

Molecule `COC(=N)c1nc2ccc3ncnc(Nc4ccc(Br)cc4F)c3c2s1` yielded a 50% inhibitory concentration (IC50) in data set [6] of 220 nM.

In [4], `CCC(=O)O[C@@H](C/C=C(\C)C(=O)OC)[C@H](C(=O)OC)[C@@H](OC(C)=O)[C@@H](C[C@H](C)[C@H](OC(=O)CC(C)C)[C@@H]1C[C@H](C)C[C@]2(C[C@H](C)C[C@@](O)(CC(C)=O)O2)O1)OC(=O)CC(C)C` registered an IC50 greater than 10000 nM.
